Results published in ChEMBL document CHEMBL1157418, “Synthesis and antitumor activity evaluations of albumin-binding prodrugs of CC-1065 analog” (Bioorg Med Chem, 2008).
Activity calls are given as the source filed them. No cut-off for these calls is given here.

What was measured:
[1] = test system: MC-38; test: Antitumor activity in BDF1 mouse bearing colon 38 cells assessed as tumor growth inhibition at 70 mg/kg, iv daily 4 times for 3 days; format: functional; conditions: MC-38, 72 h, read-out: TGI
[2] = test system: MC-38; test: Antitumor activity in BDF1 mouse bearing colon 38 cells assessed as maximum weight loss at 70 mg/kg, iv daily 4 times for 3 days; format: functional
[3] = test system: MC-38; test: Antitumor activity in BDF1 mouse bearing colon 38 cells assessed as cell death at 70 mg/kg, iv daily 4 times for 3 days; format: functional
[4] = test system: L1210; test: Antitumor activity against mouse L1210 cells assessed as inhibition of [3H]thymidine uptake after 48 hrs; format: functional, cell-based
[5] = test system: SK-OV-3; test: Antitumor activity against human SKOV3 cells assessed as inhibition of [3H]thymidine uptake after 72 hrs; format: functional, cell-based
[6] = test system: MC-38; test: Antitumor activity in BDF1 mouse bearing colon 38 cells assessed as tumor growth inhibition at 0.05 mg/kg, iv daily 4 times for 3 days; format: functional; conditions: MC-38, 72 h, read-out: TGI
[7] = test system: MC-38; test: Antitumor activity in BDF1 mouse bearing colon 38 cells assessed as maximum weight loss at 0.05 mg/kg, iv daily 4 times for 3 days; format: functional
[8] = test system: L1210; test: Antitumor activity against mouse L1210 cells; format: functional, cell-based
[9] = test system: L1210; test: Cell cycle arrest in mouse L1210 cells by increase in accumulation at G2/M phase at 0.01-0.1 ug/mL after 24 hrs by flow cytometry; format: functional, cell-based
[10] = test system: L1210; test: Cell cycle arrest in mouse L1210 cells by increase in accumulation at S phase at 0.1 ug/mL after 3 hrs by flow cytometry relative to control; format: functional, cell-based
[11] = test system: L1210; test: Cell cycle arrest in mouse L1210 cells by increase in accumulation at S phase at 0.1 ug/mL after 12 hrs by flow cytometry; format: functional, cell-based
[12] = test system: MC-38; test: Antitumor activity in BDF1 mouse bearing colon 38 cells assessed as cell death at 0.05 mg/kg, iv daily 4 times for 3 days; format: functional
[13] = test system: L1210; test: Cell cycle arrest in mouse L1210 cells by accumulation at S phase at 0.1 ug/ml after 24 hrs by flow cytometry; format: functional, cell-based
[14] = test system: L1210; test: Cell cycle arrest in mouse L1210 cells by accumulation at G2/M phase at 0.1 ug/ml after 24 hrs by flow cytometry; format: functional, cell-based
[15] = test system: L1210; test: Cell cycle arrest in mouse L1210 cells by decrease in accumulation at G1 phase at 0.01-0.1 ug/mL after 24 hrs by flow cytometry; format: functional, cell-based
[16] = test system: L1210; test: Cell cycle arrest in mouse L1210 cells by increase in accumulation at S phase at 0.01-0.1 ug/mL after 24 hrs by flow cytometry; format: functional, cell-based
[17] = test system: L1210; test: Antitumor activity in BDF1 mouse bearing mouse L1210 cells assessed as increase of life span at 10 mg/kg, iv; format: functional
[18] = test system: L1210; test: Cell cycle arrest in mouse L1210 cells by accumulation at G2/M phase at 1 ug/ml after 12 hrs by flow cytometry; format: functional, cell-based
[19] = Antitumor activity in BALB/c mouse bearing JC cells assessed as tumor growth inhibition at 8.0 mg/kg, iv daily 4 times for 3 days; format: functional; conditions: 72 h, read-out: TGI
[20] = Antitumor activity in BALB/c mouse bearing JC cells assessed as cell death at 8.0 mg/kg, iv daily 4 times for 3 days; format: functional
[21] = Antitumor activity in BALB/c mouse bearing JC cells assessed as maximum weight loss at 8.0 mg/kg, iv daily 4 times for 3 days; format: functional
[22] = test system: SK-OV-3; test: Anticancer activity in CD1 mouse xenografted with human SKOV3 cells assessed as weight change at 5 mg/kg, iv; format: functional
[23] = test system: SK-OV-3; test: Anticancer activity in CD1 mouse xenografted with human SKOV3 cells assessed as tumor growth inhibition at 5 mg/kg, iv; format: functional; conditions: read-out: TGI
[24] = test system: MC-38; test: Antitumor activity in BDF1 mouse bearing colon 38 cells assessed as tumor growth inhibition at 100 mg/kg, iv daily 4 times for 3 days; format: functional; conditions: MC-38, 72 h, read-out: TGI
[25] = test system: MC-38; test: Antitumor activity in BDF1 mouse bearing colon 38 cells assessed as maximum weight loss at 100 mg/kg, iv daily 4 times for 3 days; format: functional
[26] = test system: MC-38; test: Antitumor activity in BDF1 mouse bearing colon 38 cells assessed as cell death at 100 mg/kg, iv daily 4 times for 3 days; format: functional
[27] = test system: SK-OV-3; test: Anticancer activity in CD1 mouse xenografted with human SKOV3 cells assessed as weight change at 25 mg/kg, ip; format: functional; conditions: route intraperitoneal
[28] = test system: SK-OV-3; test: Anticancer activity in CD1 mouse xenografted with human SKOV3 cells assessed as tumor growth inhibition at 25 mg/kg, ip; format: functional; conditions: SK-OV-3, ip, route intraperitoneal, read-out: TGI
[29] = test system: L1210; test: Antitumor activity in BDF1 mouse bearing mouse L1210 cells assessed as increase of life span at 0.4 mg/kg, iv; format: functional
[30] = test system: L1210; test: Antitumor activity in BDF1 mouse bearing mouse L1210 cells assessed as increase of life span at 0.2 mg/kg, iv; format: functional
[31] = test system: L1210; test: Antitumor activity in BDF1 mouse bearing mouse L1210 cells assessed as increase of life span at 0.1 mg/kg, iv; format: functional
[32] = test system: L1210; test: Antitumor activity in BDF1 mouse bearing mouse L1210 cells assessed as increase of life span at 0.05 mg/kg, iv; format: functional
[33] = test system: MC-38; test: Antitumor activity in BDF1 mouse bearing colon 38 cells assessed as tumor growth inhibition at 0.3 mg/kg, iv daily 4 times for 2 days; format: functional; conditions: MC-38, 48 h, read-out: TGI
[34] = test system: MC-38; test: Antitumor activity in BDF1 mouse bearing colon 38 cells assessed as tumor growth inhibition at 0.15 mg/kg, iv daily 4 times for 3 days; format: functional; conditions: MC-38, 72 h, read-out: TGI
[35] = test system: MC-38; test: Antitumor activity in BDF1 mouse bearing colon 38 cells assessed as maximum weight loss at 0.3 mg/kg, iv daily 4 times for 2 days; format: functional
[36] = test system: MC-38; test: Antitumor activity in BDF1 mouse bearing colon 38 cells assessed as maximum weight loss at 0.15 mg/kg, iv daily 4 times for 3 days; format: functional
[37] = test system: MC-38; test: Antitumor activity in BDF1 mouse bearing colon 38 cells assessed as cell death at 0.3 mg/kg, iv daily 4 times for 2 days; format: functional
[38] = Antitumor activity in BALB/c mouse bearing JC cells assessed as maximum weight loss at 0.20 mg/kg, iv daily 4 times for 3 days; format: functional; conditions: dose 0.2 mg/kg
[39] = test system: MC-38; test: Antitumor activity in BDF1 mouse bearing colon 38 cells assessed as cell death at 0.15 mg/kg, iv daily 4 times for 3 days; format: functional
[40] = Antitumor activity in BALB/c mouse bearing JC cells assessed as tumor growth inhibition at 0.25 mg/kg, iv daily 4 times for 2 days; format: functional; conditions: 48 h, read-out: TGI
[41] = Antitumor activity in BALB/c mouse bearing JC cells assessed as cell death at 0.25 mg/kg, iv daily 4 times for 2 days; format: functional
[42] = Antitumor activity in BALB/c mouse bearing JC cells assessed as maximum weight loss at 0.25 mg/kg, iv daily 4 times for 2 days; format: functional
[43] = Antitumor activity in BALB/c mouse bearing JC cells assessed as tumor growth inhibition at 0.20 mg/kg, iv daily 4 times for 3 days; format: functional; conditions: 72 h, read-out: TGI
[44] = Antitumor activity in BALB/c mouse bearing JC cells assessed as cell death at 0.20 mg/kg, iv daily 4 times for 3 days; format: functional; conditions: dose 0.2 mg/kg
[45] = Antitumor activity in BALB/c mouse bearing JC cells assessed as tumor growth inhibition at 0.16 mg/kg, iv daily 4 times for 3 days; format: functional; conditions: 72 h, read-out: TGI
[46] = Antitumor activity in BALB/c mouse bearing JC cells assessed as cell death at 0.16 mg/kg, iv daily 4 times for 3 days; format: functional
[47] = Antitumor activity in BALB/c mouse bearing JC cells assessed as maximum weight loss at 0.16 mg/kg, iv daily 4 times for 3 days; format: functional
[48] = test system: SK-OV-3; test: Anticancer activity in CD1 mouse xenografted with human SKOV3 cells assessed as weight change at 0.13 mg/kg, iv; format: functional
[49] = test system: SK-OV-3; test: Anticancer activity in CD1 mouse xenografted with human SKOV3 cells assessed as tumor growth inhibition at 0.13 mg/kg, iv; format: functional; conditions: read-out: TGI

## O=c1[nH]cc(F)c(=O)[nH]1 [FLUOROURACIL]
[1]
  inhibition in vivo at 70 mg/kg: 95%
[2]
  Activity: -7%
[3]
  LCK: 1.1

## O=C(Nc1ccc2[nH]c(C(=O)N3C[C@@H](CCl)c4c3cc(O)c3ccccc43)cc2c1)c1cc2cc(F)ccc2[nH]1
[4]
  IC50: 0.17 nM
[5]
  IC50: 14 nM
[6]
  inhibition in vivo at 0.05 mg/kg: 76%
[7]
  Activity: -7%
[8]
  IC50: 0.29 nM
[9]
  Activity: Active
[10]
  Activity: Active
[11]
  Activity: Active
[12]
  LCK: 0.68
[13]
  Activity: Active
[14]
  Activity: Active
[15]
  Activity: Active
[16]
  Activity: Active

## COc1cccc2c1C(=O)c1c(O)c3c(c(O)c1C2=O)C[C@@](O)(C(=O)CO)C[C@@H]3O[C@H]1C[C@H](N)[C@H](O)[C@H](C)O1 [DOXORUBICIN]
[4]
  IC50: 182 nM
[17]
  Activity: 85%
[18]
  Activity: Active
[19]
  inhibition in vivo at 8 mg/kg: 82%
[20]
  LCK: 0.78
[21]
  Activity: -25%
[22]
  Activity: -4%
[23]
  inhibition in vivo at 5 mg/kg: 39%

## CCCCCC(=O)O [HEXANOATE]
[8]
  IC50: 4.6 nM

## CCc1c2c(nc3ccc(OC(=O)N4CCC(N5CCCCC5)CC4)cc13)C1CC3=C(COC(=O)[C@]3(O)CC)C(=O)N1C2 (stereo partly drawn)
[24]
  inhibition in vivo at 100 mg/kg: 96%
[25]
  Activity: -7%
[26]
  LCK: 1.7

## CC/C=C\C/C=C\C/C=C\C/C=C\C/C=C\C/C=C\CCC(=O)O [DOCONEXENT]
[8]
  IC50: 13 nM

## Cc1c[nH]c2c1[C@@]13C[C@@H]1CN(C(=O)c1cc4cc(NC(=O)c5cc6ccccc6o5)ccc4[nH]1)C3=CC2=O
[13]
  Activity: Active
[14]
  Activity: Active

## CC(=O)O[C@H]1C(=O)[C@@]2(C)[C@H]([C@H](OC(=O)c3ccccc3)[C@]3(O)C[C@H](OC(=O)[C@H](O)[C@@H](NC(=O)c4ccccc4)c4ccccc4)C(C)=C1C3(C)C)[C@]1(OC(C)=O)CO[C@@H]1C[C@@H]2O [PACLITAXEL]
[27]
  Activity: -1%
[28]
  inhibition in vivo at 25 mg/kg: 22%

## O=C(CCCCCN1C(=O)C=CC1=O)Oc1cc2c(c3ccccc13)[C@H](CCl)CN2C(=O)c1cc2cc(NC(=O)c3cc4cc(F)ccc4[nH]3)ccc2[nH]1
[4]
  IC50: 25 nM
[5]
  IC50: 34 nM
[29]
  Activity: 133%
[30]
  Activity: 107%
[31]
  Activity: 51%
[32]
  Activity: 40%
[33]
  inhibition in vivo at 0.3 mg/kg: 99%
[34]
  inhibition in vivo at 0.15 mg/kg: 99%
[35]
  Activity: -25%
[36]
  Activity: -10%
[37]
  LCK: 2.6
[9]
  Activity: Active
[10]
  Activity: Active
[11]
  Activity: Active
[38]
  Activity: -23%
[39]
  LCK: 2.3
[40]
  inhibition in vivo at 0.25 mg/kg: 98%
[41]
  LCK: 2
[42]
  Activity: -21%
[43]
  inhibition in vivo at 0.2 mg/kg: 98%
[44]
  LCK: 1.9
[45]
  inhibition in vivo at 0.16 mg/kg: 93%
[46]
  LCK: 1.5
[47]
  Activity: -19%
[48]
  Activity: -3%
[49]
  inhibition in vivo at 0.13 mg/kg: 52%
[13]
  Activity: Active
[14]
  Activity: Active
[15]
  Activity: Active
[16]
  Activity: Active
